# Laboratory results reported in ChEMBL document CHEMBL1127693, “Novel isoxazoles which interact with brain cholinergic channel receptors have intrinsic cognitive enhancing and anxiolytic activities” (J Med Chem, 1994).
# Columns and labels:
# [1] = Binding affinity at CCR was determined by displacement of [3H]nicotine from rat brain; format: tissue-based
# [2] = Binding affinity at CCR was determined by displacement of [125I]- alpha-BgT from Torpedo californica electroplax; design: species or system Tetronarce californica
# [3] = Binding affinity at CCR was determined by displacement of [3H]cytisine from rat brain; format: tissue-based
# [4] = Binding affinity at CCR was determined by displacement of [125I]- alpha-BgT from rat brain; format: tissue-based
# [5] = target: Muscarinic acetylcholine receptor (Rattus norvegicus); test: Binding affinity at muscarinic receptor was determined by displacement of [3H]OXO-M from rat brain
SMILES,Ki [1] [nM],Ki [2] [µM],Ki [3] [nM],Ki [4] [µM],Ki [5] [µM]
c1cncc([C@@H]2CCCN2)c1 [NORNICOTINE],56,11,–,–,–
CN1CCC[C@H]1c1cccnc1 [NICOTINE],1.4,–,–,–,–
Cc1cc([C@@H]2CCCN2)on1,–,> 20,333,> 20,> 20
c1cncc([C@H]2CCCN2)c1,41,0.3,–,–,–
Cc1cc([C@H]2CCCN2C)on1,–,–,44,–,–
CN1CCC[C@@H]1c1cccnc1 [R-NICOTINE],32,–,–,–,–
Cc1cc([C@H]2CCCN2)on1,–,3.4,7.4,> 20,8
